In patent US5587490A, “Method of inactivation of viral and bacterial blood contaminants” (Credit Managers Association of California, priority 1993, dated 1996):
Where two headings read alike, the source gives them in different places.

Legend:
[1] = test system: Salmonella typhimurium TA1537; test: Ames mutagenicity plate incorporation assay, TA1537; format: cell-based; conditions: average of duplicate plates
[2] = test system: Salmonella typhimurium TA1535; test: Ames mutagenicity plate incorporation assay, TA1535; format: cell-based; conditions: average of duplicate plates
[3] = test system: Salmonella typhimurium TA1538; test: Ames mutagenicity plate incorporation assay, TA1538; format: cell-based; conditions: average of duplicate plates
salmonella mutants = test: Standard Ames mutagenicity test, overall outcome; format: cell-based, Salmonella typhimurium; conditions: 0.6 mg/mL; in words
phi 6 phage [4] = test: UV inactivation of phi 6 in human plasma or fetal bovine serum; format: cell-based; conditions: light or radiation study, 0.5 h; Fetal bovine serum, 0.03 mg/mL, UVA 30 min. (8.4 J/cm^2); read-out: Viral Reduction (log), phi 6
Experimental: (§1) Viral inactivation in FBS was carried out in 100 mL serum samples in 225 cm^2 tissue culture flask in the presence of sensitizer 8B (0.03 mg/mL). The sample was exposed to UVA light from top (3.6 mW/cm^2) and bottom (3.4 mW/cm^2) while continuously mixing on an orbital shaker for 30 min. (8.4 J/cm^2). Human plasma was irradiated in a Pyrex glass photolysis cell in the presence of sensitizer 8 (0.1 mg/mL) for 5 min. Inactivation of various bacteriophages were carried out using brominated psoralens in combination with UVA light. The results in Table 5 below clearly indicate that 5-7 logs of viral reduction was obtained with various phage (enveloped and non-enveloped) in human plasma fractions and fetal bovine serum products.

platelets [5] = format: cell-based, human
Experimental: (§2) Human platelet concentrates are mixed with phi 6 bacteriophage, with or without sensitizer, then exposed to U.V. light. Cell quality assays after treatment include morphology score conducted by visual inspection using a light microscope (using a Kunicki scoring system), hypotonic shock response (HSR), aggregation response induced by addition of ADP measured in an aggregometer, and cell number count.
(§3) 1. Soft spin platelet unit at 1000 rpm for 5 min to remove RBC.
(§4) 2. Dilute concentrated platelets with spun autologous plasma to obtain a conc. of 500×10^6 cells/ml.
(§5) 3. Add 5×10^6 of .phi.6 to the platelet suspension and mix gently.
(§6) 4. Add sensitizer to the platelet suspension and incubate for 15 min while protecting from light. Control samples have PBS added.
(§7) 5. Pipet 2 ml aliquots into small plastic petri dishes and irradiate with UV while rotating samples at 100 rpm on a shaker. Irradiate samples without cover.
(§8) 6. Transfer irradiated samples to 15 ml plastic centrifuge tubes.
(§9) 7. Determine morphology, HSR, ADP, Viral inactivation, cell count.
The vital inactivation values and in vitro properties of platelets subjected to viral inactivation treatment using various derivatives of psoralen are summarized in Table 1.
(§10) Single unit platelet concentrates were obtained 24 hours after collection from certified blood banks. The platelet were subjected to soft spin to remove residual RBC and about 6 logs of .phi.6 phage and sensitizer 8B were added in PBS solution to obtain 0.03 mg/mL final sensitizer concentration. The samples were transferred to Stericon™ polyolefin bag (which transmits 60% of UVA light) and irradiated from top (3.6 mW/cm^2) and bottom (3.4 mW/cm^2) in a home made reactor for 10 min. The bags were continuously mixed on extended glass platform attached to orbital shaker. The viral inactivation values and in vitro properties of platelet concentrates were monitored for 2 days after the treatment.

phi 6 phage [6] = test: UVA inactivation of phi 6 in packed red cells; format: cell-based
Experimental: Units of packed red cells were transferred to Stericon™ red cell freezing bags and the hematocrits were adjusted to 60% with PBS. […] The samples were mixed continuously during UVA exposure on an orbital shaker. The final viral titer in the sample was determined by the plaque method. In vitro biochemical and biophysical properties of treated red cells were monitored for 7 day following the treatment.
The viral inactivation kinetics in red cells is dependent on the intensity of the UVA light source. The data in Table 4 below indicate that the time required to achieve 6 logs of viral reduction varies with the intensity of the UVA light source used.

phi 6 bacteriophage = test: UV inactivation of phi 6 in platelet preparations; format: cell-based; conditions: for log reduction at 30 µg/mL: Bacteriophage sp., Platelet, light or radiation study, 10 min
Experimental: as §2, §3, §4, §5, §6, §7, §8, §9
To test the viral inactivation efficiency of brominated sensitizers, platelet preparations (2 mL, PRP) were spiked with .phi.6 phage and brominated psoralen (8B) and non-brominated psoralen(8C) were added to obtain final sensitizer concentration of 0.1 mg/mL. The samples were exposed to UVA light in a home made reactor consisting of 4 UVA lamps for the indicated time periods. The petri dishes containing samples were mixed on an orbital shaker during UVA exposure. The UVA light intensity at the sample position was measured at 3.3 mW/cm^2. The residual viral titer after each time point was measured by plaque method The viral reduction values are illustrated in FIG. 26.
Single unit platelet concentrates were obtained 24 hours after collection from certified blood banks. […] The viral inactivation values and in vitro properties of platelet concentrates were monitored for 2 days after the treatment.

red cells = test: Red cell in vitro properties following UVA viral inactivation treatment; format: cell-based, human; conditions: 0.3 mg/mL
Experimental: Units of packed red cells were transferred to Stericon™ red cell freezing bags and the hematocrits were adjusted to 60% with PBS. The samples were spiked with 5×10^6 PFU/mL .phi.6 phage and 0.3 mg/mL sensitizer 8B. The contents of the bag was exposed to UVA light from top (3.6 mW/cm^2) and bottom (3.4 mW/cm^2) for 6 hours (151.2 J/cm^2). The samples were mixed continuously during UVA exposure on an orbital shaker. The final viral titer in the sample was determined by the plaque method. In vitro biochemical and biophysical properties of treated red cells were monitored for 7 day following the treatment.

platelets [7] = test: Platelet cell count after UV treatment; format: cell-based, human; conditions: Treated, UVA 10 min
Experimental: as §10

[8] = test system: Salmonella typhimurium TA98; test: Ames mutagenicity plate incorporation assay, TA98; format: cell-based; conditions: average of duplicate plates
[9] = test system: Salmonella typhimurium TA100; test: Ames mutagenicity plate incorporation assay, TA100; format: cell-based; conditions: average of duplicate plates
bacterial phage λ = test: UV inactivation of lambda phage in plasma or fetal bovine serum; format: cell-based; conditions: Escherichia phage Lambda, light or radiation study, 0.5 h; Fetal bovine serum, 0.03 mg/mL, UVA 30 min. (8.4 J/cm^2); read-out: Viral Reduction (log), λ
Experimental: A stock solution of bacterial phage λ is added to plasma to obtain final titre of 1.2×10^8 PFU/ml and compound No. 3 (structure given above) at 0.1 mg/ml concentration. The mixture was transferred to Pyrex glass photolysis cells and exposed to UV (300-360 nm blue lamp) for 5 minutes. After UV irradiation treatment the final viral titre and Factor VIII activity were measured as described earlier. […] About 3-6 logs of increased viral inactivation was obtained with protein coated viruses using a sensitizer. Only 10% of Factor VIII activity was recovered after viral inactivation treatment.
as §1

platelet concentrates = test: pH of platelet concentrates after UV treatment; format: cell-based, human; conditions: Treated, UVA 10 min
Experimental: as §10

## CC[N+](CC)(CC)CCCOc1c2occc2c(Br)c2ccc(=O)oc12 [Sensitizer 8B]
[1]; w/S-9
  Number of Revertant Colonies: 26
[1]; without S-9
  Number of Revertant Colonies: 36
[2]; w/S-9
  Number of Revertant Colonies: 197
[2]; without S-9
  Number of Revertant Colonies: 173
[3]; w/S-9
  Number of Revertant Colonies: 25
[3]; without S-9
  Number of Revertant Colonies: 22
Salmonella mutants
  Ames mutagenicity: non-mutagenic
Phi 6 phage [4]
  log reduction at 30 µg/mL: 6.5
Platelets [5]
  ADP Agg.: 26 ± 10
Phi 6 phage [6]; UV Reactor 1, Top, 3.3 mW/cm^2, 0.1 mg/mL, n = 1
  Time Required for 6.0 logs V.I.: 16.4 Hours
Phi 6 phage [6]; UV Reactor 2, Top + Bottom, 3.6/3.4 mW/cm^2, 0.1 mg/mL, n = 9
  Time Required for 6.0 logs V.I.: 7.0 ± 1.2 Hours
Phi 6 phage [6]; UV Reactor 3, Top + Bottom, 40/40 mW/cm^2, 0.1 mg/mL, n = 3
  Time Required for 6.0 logs V.I.: 1.3 ± 0.4 Hours
Phi 6 bacteriophage; 0.1 mg/mL, UVA 3.3 mW/cm^2
  fold improvement in the level of viral inactivation, brominated (8B) vs non-brominated (8C): ≤ 400 fold
Phi 6 bacteriophage; read-out: V.I (log10)
  log reduction at 30 µg/mL: 5.3
Phi 6 bacteriophage; read-out: viral reduction
  log reduction at 30 µg/mL: > 5.3
Red cells; UVA 6 hours, in words
  alterations in in vitro biochemical and biophysical properties: without any significant alterations in in vitro biochemical and biophysical properties
Red cells; Treated, Day 1, UVA 6 hours
  % Hemochrome: 1.9%
  DI Max % control (deformability index): 97.4 % control
Red cells; Treated, Day 1, UVA 6 hours (151.2 J/cm^2)
  MCV: 88.8
Red cells; Treated, Day 2, UVA 6 hours
  % Hemochrome: 0.6%
  DI Max % control (deformability index): 99.6 % control
Red cells; Treated, Day 7, UVA 6 hours
  % Hemochrome: 0.2%
  DI Max % control (deformability index): 99.0 % control
Platelets [7]; 0 Hour
  Cell count: 474
Platelets [7]; 24 Hours
  Cell count: 499
Platelets [7]; 48 Hours
  Cell count: 506
[8]; w/S-9
  Number of Revertant Colonies: 83
[8]; without S-9
  Number of Revertant Colonies: 55
[9]; w/S-9
  Number of Revertant Colonies: 245
[9]; without S-9
  Number of Revertant Colonies: 164
Bacterial phage λ
  log reduction at 30 µg/mL: 6.6
Platelet concentrates; 0 Hour
  pH: 7.2
Platelet concentrates; 24 Hours
  pH: 7.1
Platelet concentrates; 48 Hours
  pH: 6.8
